We go through 10 molecules from US11440914B2, “Tricyclic amine compounds as CDK2 inhibitors” (Incyte Corporation, priority 2019, dated 2022).

Experiment [1] concerns Rb phosphorylated on serine 780 in CCNE1 amplified COV318 cells. Kind of experiment: CDK2 pRb (S780) HTRF cellular assay. The format is cell-based. To be noted: Homo sapiens, overnight treatment, read-out: IC50 in p-RB S780 HTRF cellular assay. On the procedure: CDK2 pRb ([…]) HTRF cellular assay enables the quantitative detection of Rb phosphorylated on […] in CCNE1 amplified COV318 cells. The assay comprised two antibodies: Europium cryptate labeled anti-Phospho-Rb […] antibody (donor) and d2 labeled anti-Rb antibody (acceptor). In brief, COV318 cells were seeded into the wells of 96-well plate at a density of 25,000 per well with 9-point, 3-fold serial diluted compounds and cultured overnight at 37 degree with 5% CO2. The final concentrations of compounds start from 3 μM. […] After 2 h of incubation at room temperature, HTRF signals were measured on the PHERAstar microplate reader (BMG Labtech), using 340 nm as excitation wavelength, a 620 nm filter for the Europium donor fluorescence, and a 665-nm filter for the acceptor fluorescence detection. HTRF signals were calculated as the HTRF ratio (ratio of fluorescence measured at 665 nm and 620 nm)×10000.

Experiment [2] relates to CCNE1-amplified cell lines (OVCAR3, COV318). Kind of experiment: Cell cycle analysis by FACS in CCNE1-amplified cell lines. The class given is cell-based, human. The following applies: for percentage of S phase cells: 100 nM, 16 hours. As for the experimental part:
(§1) The effect of CDK4/6-inhibition in CCNE1-amplified versus CCNE1-non-amplified cell lines was evaluated.
(§2) A similar experiment was performed in a larger set of CCNE1-amplified cell lines (COV318 and OVCAR3) and CCNE1-non-amplified cell lines (COV504, OV56, and Igrov1) (FIG. 6).
To confirm the role of p16 in CDK2-sensitivity of CCNE-amplified cells, COV318 cells were treated with control or p16-specific siRNA.
(§3) Bulk DNA was stained with DAPI. Compound-treated and DMSO treated control cells were acquired with CytoFlex (Beckman Coulter) and were analyzed using the FlowJo software. For cell cycle analysis of cells with siRNA knockdown, 72 hours after siRNA transfection, cells exposed to […] for 3 hours before detection of Click-iT Alexa Fluor® 647 azide kit.

The next experiment deals with CDK2/Cyclin E1 (Homo sapiens (Human), UniProt P24941). Kind of experiment: CDK2/Cyclin E1 HTRF enzyme activity assay. The format is biochemical. The following applies: 1 mM ATP. On the procedure: CDK2/Cyclin E1 enzyme activity assays utilize full-length human CDK2 co-expressed as N-terminal GST-tagged protein with FLAG-Cyclin E1 in a baculovirus expression system (Carna Product Number 04-165). Assays are conducted in white 384-well polystyrene plates in a final reaction volume of 8 μL. CDK2/Cyclin E1 (0.25 nM) is incubated with compounds (40 nL serially diluted in DMSO) in the presence of ATP (50 μM or 1 mM) and 50 nM ULight™-labeled eIF4E-binding protein 1 (THR37/46) peptide (PerkinElmer) in assay buffer (containing 50 mM HEPES pH 7.5, 1 mM EGTA, 10 mM MgCl2, 2 mM DTT, 0.05 mg/ml BSA, and 0.01% Tween 20) for 60 minutes at room temperature. The reactions are stopped by the addition of EDTA and Europium-labeled anti-phospho-4E-BP1 antibody (PerkinElmer), for a final concentration of 15 mM and 1.5 nM, respectively. HTRF signals are read after 1 hour at room temperature on a PHERAstar FS plate reader (BMG Labtech). Data is analyzed with IDBS XLFit and GraphPad Prism 5.0 software using a three or four parameter dose response curve to determine IC50 for each compound.

Experiment [3] has as its system CCNE1-non-amplified cell lines (COV504, OV56, Igrov1). Kind of experiment: Cell cycle analysis by FACS in CCNE1-non-amplified cell lines. The class given is cell-based, human. As for the experimental part:
as §1, §2, §3

For experiment [4], the system named is Rb phosphorylation at S780 in CCNE1-non-amplified cell lines (COV504 and OV56). Kind of experiment: Western blot of Rb phosphorylation at S780 in CCNE1-non-amplified cell lines. The following applies: various doses, 1 or 15 hours. The class given is cell-based, human. On the procedure:
(§4) The effect of CDK4/6-inhibition on Rb phosphorylation at S780 in CCNE1-amplified versus CCNE1-non-amplified cell lines was evaluated. […] One or 15 hours after treatment, the cells were harvested and total protein was extracted and analyzed by western blot (FIG. 8).
(§5) Whole cell extracts were prepared using RIPA buffer (Thermo Scientific, 89900) with a Halt Protease and Phosphatase Inhibitor Cocktail (Thermo Scientific, 78440). Protein concentration was quantified with a BCA Protein Assay Kit (Thermo Scientific, 23225) and […] of protein lysates were loaded for SDS-PAGE using precast gradient gels (Bio-Rad, Hercules, No. 456-1094). Samples were diluted in 5× Laemmli buffer (300 mM Tris-HCl pH 6.8, 10% SDS (w/v), 5% 2-mercaptoethanol, 25% glycerol (v/v), 0.1% bromophenol blue w/v) and boiled for 5 minutes. […] of proteins were separated by 8-15% SDS-PAGE and transferred onto polyvinylidene fluoride (PVDF) membranes. Unspecific binding sites on the PVDF membranes were blocked with 5% non-fat milk in TBST (20 mM Tris-HCl, pH 7.6, 137 mM NaCl, 1% Tween-20). […] Images were captured by Luminescence/Fluorescence Imaging System Odyssey CLx Imager (LI-COR).

The subject of experiment [5] is Rb phosphorylation at S780 in CCNE1-amplified cell lines (OVCAR3 and COV318). Kind of experiment: Western blot of Rb phosphorylation at S780 in CCNE1-amplified cell lines. The following applies: various doses, 1 or 15 hours. The class given is cell-based, human. As for the experimental part:
as §4, §5

`C[C@@]1(O)CCC[C@H]1n1c(=O)ccc2cnc(NC3CCN(S(C)(=O)=O)CC3)nc21` [Compound A, 8-((1R,2R)-2-hydroxy-2-methylcyclopentyl)-2-((1-(methylsulfonyl)piperidin-4-yl)amino)pyrido[2,3-d]pyrimidin-7(8H)-one]: the IC50 in experiment [1] turned out to be 37 nM. Besides, the “percentage of S phase cells” value in experiment [2] (COV318, control siRNA) is “significantly decreased”; in experiment [2] (COV318, p16 knocked down by siRNA, vs DMSO), “not significantly decreased”.
For the molecule `Cc1nc2c(n1C1CC1)-c1nc(NC3CCN(S(C)(=O)=O)CC3)ncc1CC2(C)C` [Example 25, 1-Cyclopropyl-2,4,4-trimethyl-N-(1-(methylsulfonyl)piperidin-4-yl)-4,5-dihydro-1H-imidazo[4,5-h]quinazolin-8-amine], the IC50 against CDK2/Cyclin E1 was at most 50 nM.
On the same count and under the same terms, to `CS(=O)(=O)N1CCC(Nc2ncc3c(n2)-c2c(ncn2C2CC2)CO3)CC1` [Example 26, 1-Cyclopropyl-N-(1-(methylsulfonyl)piperidin-4-yl)-1,4-dihydroimidazo[4′,5′:4,5]pyrano[3,2-d]pyrimidin-8-amine] belongs at most 50 nM.
Still for that read-out and setting: to `Cc1nc2c(n1C(C)C)-c1nc(NC3CCN(S(C)(=O)=O)CC3)ncc1CC2` [Example 27, 1-Isopropyl-2-methyl-N-(1-(methylsulfonyl)piperidin-4-yl)-4,5-dihydro-1H-imidazo[4,5-h]quinazolin-8-amine] belongs at most 50 nM; to `Cc1nc2c(n1C)-c1nc(N[C@H]3CCN(S(=O)(=O)c4cn(C)cn4)C[C@H]3C)ncc1CC2` [Example 28, 1,2-Dimethyl-N-((3R,4S)-3-methyl-1-((1-methyl-1H-imidazol-4-yl)sulfonyl)piperidin-4-yl)-4,5-dihydro-1H-imidazo[4,5-h]quinazolin-8-amine], at most 50 nM.
The same measure, in the same setting: to `Cc1nc2c(n1C)-c1nc(N[C@H]3CCN(S(=O)(=O)c4cccc(N5CCN(C)CC5)n4)C[C@H]3C)ncc1CC2` [Example 29, 1,2-Dimethyl-N-((3R,4S)-3-methyl-1-((6-(4-methylpiperazin-1-yl)pyridin-2-yl)sulfonyl)piperidin-4-yl)-4,5-dihydro-1H-imidazo[4,5-h]quinazolin-8-amine] belongs at most 50 nM.
At CDK2/Cyclin E1, `Cc1nc2c(n1C)-c1nc(N[C@H]3CCN(S(=O)(=O)c4ccc(N5CC[C@@H](O)C5)nc4)C[C@H]3C)ncc1CC2` [Example 30, (R)-1-(5-(((3R,4S)-4-((1,2-Dimethyl-4,5-dihydro-1H-imidazo[4,5-h]quinazolin-8-yl)amino)-3-methylpiperidin-1-yl)sulfonyl)pyridin-2-yl)pyrrolidin-3-ol] yielded an IC50 of at most 50 nM.
`Cc1nc2c(n1C1CC1)-c1nc(N[C@H]3CCN(S(=O)(=O)c4cn(C)cn4)C[C@H]3C)ncc1CC2` [Example 31, 1-Cyclopropyl-2-methyl-N-((3R,4S)-3-methyl-1-((1-methyl-1H-imidazol-4-yl)sulfonyl)piperidin-4-yl)-4,5-dihydro-1H-imidazo[4,5-h]quinazolin-8-amine] showed an IC50 at CDK2/Cyclin E1 of at most 50 nM.
Consider `Cc1nc2c(n1C1CC1)-c1nc(N[C@H]3CCN(S(=O)(=O)c4cnn(C)c4)C[C@H]3C)ncc1CC2` [Example 32, 1-Cyclopropyl-2-methyl-N-((3R,4S)-3-methyl-1-((1-methyl-1H-pyrazol-4-yl)sulfonyl)piperidin-4-yl)-4,5-dihydro-1H-imidazo[4,5-h]quinazolin-8-amine], for which, at CDK2/Cyclin E1, the IC50 was at most 50 nM.
As to `CC(=O)c1c(C)c2cnc(Nc3ccc(N4CCNCC4)cn3)nc2n(C2CCCC2)c1=O` [palbociclib], the IC50 in experiment [1] is above 3000 nM. For the same molecule, the “percentage of cells at the S phase as compared to DMSO” value is recorded as “decreased in CCNE1-non-amplified cell lines in a dose-dependent fashion” in experiment [3] (COV504, OV56, Igrov1, 16 hours after treatment); “not significantly different” in experiment [2] (COV318 and OVCAR3, 16 hours after treatment). Moreover, in experiment [3] (COV504 cells, 16 hours, increasing concentrations), the “proliferation (cell cycle analysis by FACS)” value is given as “dose-dependent inhibition of the proliferation”. In addition, the “Rb phosphorylation at S780” value in experiment [4] is reported as “blocked Rb phosphorylation”; in experiment [5], “not in CCNE1-amplified cell lines”.
